Measurements from PubChem BioAssay (NCI).
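Test compounds were applied to cells in 96-well plates for 48 hours at 5 doses. GI50 marks 50% less growth. At the TGI there is no net growth.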

Experiments:
Test in all cases: NCI tumour cell line growth inhibition, 48 h
ACHN renal = test system: ACHN renal
KM12 colon = test system: KM12 colon
OVCAR-8 ovarian = test system: OVCAR-8 ovarian
HL-60(TB) leukemia = test system: HL-60(TB) leukemia
SNB-75 CNS = test system: SNB-75 CNS
HOP-62 NSCLC = test system: HOP-62 NSCLC
MALME-3M melanoma = test system: MALME-3M melanoma
A549 NSCLC = test system: A549 NSCLC
LOX IMVI melanoma = test system: LOX IMVI melanoma
TK-10 renal = test system: TK-10 renal
BT-549 breast = test system: BT-549 breast
COLO 205 colon = test system: COLO 205 colon
SW-620 colon = test system: SW-620 colon
UO-31 renal = test system: UO-31 renal
SNB-19 CNS = test system: SNB-19 CNS
HOP-92 NSCLC = test system: HOP-92 NSCLC
IGROV1 ovarian = test system: IGROV1 ovarian
EKVX NSCLC = test system: EKVX NSCLC
NCI-H226 lung = test system: NCI-H226 lung
U251 CNS = test system: U251 CNS
HCT-15 colon = test system: HCT-15 colon
786-0 renal = test system: 786-0 renal
UACC-62 melanoma = test system: UACC-62 melanoma
RPMI-8226 leukemia = test system: RPMI-8226 leukemia
NCI/ADR-RES ovarian = test system: NCI/ADR-RES ovarian
MCF7 breast = test system: MCF7 breast
OVCAR-3 ovarian = test system: OVCAR-3 ovarian
A498 renal = test system: A498 renal
DU-145 prostate = test system: DU-145 prostate

O=C(Nc1cccc(-c2nc(-c3ccc(NC(=O)c4cccnc4)cc3Cl)no2)c1)Nc1ccc(NC(=O)C2CC2)c(C(F)(F)F)c1
GI50 (ACHN renal): 2070 nM
TGI (ACHN renal): 13.2 µM
GI50 (KM12 colon): 376 nM
TGI (KM12 colon): 1750 nM
GI50 (OVCAR-8 ovarian): 449 nM
TGI (OVCAR-8 ovarian): 3.1 µM
GI50 (HL-60(TB) leukemia): 259 nM
TGI (HL-60(TB) leukemia): 997 nM
GI50 (SNB-75 CNS): 224 nM
TGI (SNB-75 CNS): 806 nM
GI50 (HOP-62 NSCLC): 361 nM
TGI (HOP-62 NSCLC): 1800 nM
GI50 (MALME-3M melanoma): 240 nM
TGI (MALME-3M melanoma): 808 nM
GI50 (A549 NSCLC): 429 nM
TGI (A549 NSCLC): 4.76 µM
GI50 (LOX IMVI melanoma): 174 nM
TGI (LOX IMVI melanoma): 388 nM
GI50 (TK-10 renal): 1920 nM
TGI (TK-10 renal): 5.46 µM
GI50 (BT-549 breast): 1070 nM
TGI (BT-549 breast): 3.02 µM
GI50 (COLO 205 colon): 380 nM
TGI (COLO 205 colon): 1610 nM
GI50 (SW-620 colon): 345 nM
TGI (SW-620 colon): 1510 nM
GI50 (UO-31 renal): 1610 nM
TGI (UO-31 renal): 5.45 µM
GI50 (SNB-19 CNS): 381 nM
TGI (SNB-19 CNS): 1900 nM
GI50 (HOP-92 NSCLC): 522 nM
TGI (HOP-92 NSCLC): 1330 nM
GI50 (IGROV1 ovarian): 258 nM
TGI (IGROV1 ovarian): 830 nM
GI50 (EKVX NSCLC): 997 nM
TGI (EKVX NSCLC): 5.11 µM
GI50 (NCI-H226 lung): 562 nM
TGI (NCI-H226 lung): 1960 nM
GI50 (U251 CNS): 290 nM
TGI (U251 CNS): 1020 nM
GI50 (HCT-15 colon): 784 nM
TGI (HCT-15 colon): 5.62 µM
GI50 (786-0 renal): 994 nM
TGI (786-0 renal): 3.11 µM
GI50 (UACC-62 melanoma): 317 nM
TGI (UACC-62 melanoma): 1570 nM
GI50 (RPMI-8226 leukemia): 303 nM
TGI (RPMI-8226 leukemia): 1100 nM
GI50 (NCI/ADR-RES ovarian): 22.2 µM
TGI (NCI/ADR-RES ovarian): > 100 µM
GI50 (MCF7 breast): 228 nM
TGI (MCF7 breast): 1220 nM
GI50 (OVCAR-3 ovarian): 315 nM
TGI (OVCAR-3 ovarian): 1100 nM
GI50 (A498 renal): 161 nM
TGI (A498 renal): 1890 nM
GI50 (DU-145 prostate): 435 nM
TGI (DU-145 prostate): 4.21 µM
